Measurements: US11203599B2, “Solid forms of an antiviral compound” (Gilead Pharmasset LLC, priority 2014, dated 2021)
Structures can show the parent of a compound that is named as a salt. One block for each compound: values may come before it.

Legend:
Assay type in all cases: physicochemical
[1] = Water uptake of the desolvated form in contact with air (water by KF)
Protocol: (§1) The stable form screen of Compound I bis-HCl was performed using 20 solvents (5-10 volumes) in an attempt to discover all crystalline forms, as summarized in Table 2. Four crystalline solvates were discovered in the slurries, which utilized alcohols such as methanol, ethanol and 1-propanol. With ethanol, the initial precipitation was Compound I bis-HCl Form III solids; after stirring for two weeks, the solids became Compound I bis-HCl Form V. The shapes of these crystals appeared as needles, shown in FIG. 47. After vacuum drying, these solvates lost solvents easily and changed to Compound I bis-HCl Form VI. […] For example, Compound I bis-HCl Form VI contains 8.8% water by KF after drying the methanol solvate and contains 5.2% water after drying the ethanol solvate. Each form was characterized by XRPD, DSC and TGA (FIGS. 4-19). TGA and DSC analysis were conducted after the samples were dried at room temperature in vacuum oven for 1 hour.

[2] = Dynamic vapor sorption (DVS)
[3] = Stable form screen of Compound I bis-HCl: solubility in solvents; conditions: thermodynamic from solid
Protocol: as §1

Water by KF ([1]; after drying the ethanol solvate): 5.2%
Water by KF ([1]; after drying the methanol solvate): 8.8%
Water absorption in contact with air ([1]; desolvated form): absorbs water quickly
Hygroscopicity by DVS analysis ([2]; FIG. 19): hygroscopic
SMILES: COC[C@H]1C[C@@H](c2ncc(-c3ccc4c(c3)COc3cc5c(ccc6nc([C@@H]7CC[C@H](C)N7C(=O)[C@@H](NC(=O)OC)C(C)C)[nH]c65)cc3-4)[nH]2)N(C(=O)[C@H](NC(=O)OC)c2ccccc2)C1 [Compound I bis-HCl Form VI, methyl {(2S)-1-[(2S,5S)-2-(9-{2-[(2S,4S)-1-{(2R)-2-[(methoxycarbonyl)amino]-2-phenylacetyl}-4-(methoxymethyl)pyrrolidin-2-yl]-1H-imidazol-5-yl}-1,11-dihydroisochromeno[4′,3′:6,7]naphtho[1,2-d]imidazol-2-yl)-5-methylpyrrolidin-1-yl]-3-methyl-1-oxobutan-2-yl}carbamate bis-hydrochloride]

solubility ([3]; ethanol, organic solvent or mixture, solvent EtOH, initial Form III, final Form V): 9000 µg/mL
solubility ([3]; ethanol/water, aqueous with cosolvent or surfactant or cyclodextrin, solvent EtOH/water, Solution): > 20000 µg/mL
solubility ([3]; methanol, organic solvent or mixture, solvent MeOH, final form Compound I bis-HCl Form II): 50000 µg/mL
solubility ([3]; organic solvent or mixture, solvent 1-Propanol, final form Compound I bis-HCl Form IV): 9000 µg/mL
solubility ([3]; organic solvent or mixture, solvent 2-Butanol, Solution): > 50000 µg/mL
solubility ([3]; organic solvent or mixture, solvent Acetone, Mesophase): 6000 µg/mL
solubility ([3]; organic solvent or mixture, solvent DCM, Solution): > 20000 µg/mL
solubility ([3]; organic solvent or mixture, solvent Ethyl acetate, Mesophase): < 1000 µg/mL
solubility ([3]; organic solvent or mixture, solvent IPAc, Mesophase): < 1000 µg/mL
solubility ([3]; organic solvent or mixture, solvent MIBK, Mesophase): < 1000 µg/mL
solubility ([3]; organic solvent or mixture, solvent MTBE, Amorphous): < 1000 µg/mL
solubility ([3]; organic solvent or mixture, solvent Toluene, Mesophase): < 1000 µg/mL
solubility ([3]; organic solvent or mixture, solvent heptane, Amorphous): < 1000 µg/mL
solubility ([3]; solvent Water, final form Amorphous): < 1000 µg/mL
SMILES: COC[C@H]1C[C@@H](c2ncc(-c3ccc4c(c3)COc3cc5c(ccc6nc([C@@H]7CC[C@H](C)N7C(=O)[C@@H](NC(=O)OC)C(C)C)[nH]c65)cc3-4)[nH]2)N(C(=O)[C@H](NC(=O)OC)c2ccccc2)C1 [Compound I bis-HCl, methyl {(2S)-1-[(2S,5 S)-2-(9-{2-[(2S,4S)-1-{(2R)-2-[(methoxycarbonyl)amino]-2-phenylacetyl}-4-(methoxymethyl)pyrrolidin-2-yl]-1H-imidazol-5-yl}-1,11-dihydroisochromeno[4′,3′:6,7]naphtho[1,2-d]imidazol-2-yl)-5-methylpyrrolidin-1-yl]-3-methyl-1-oxobutan-2-yl}carbamate bis-hydrochloride]

Moisture uptake in DVS ([2]; between about 10-50% RH, FIG. 53): about 7%
SMILES: COC[C@H]1C[C@@H](c2ncc(-c3ccc4c(c3)COc3cc5c(ccc6nc([C@@H]7CC[C@H](C)N7C(=O)[C@@H](NC(=O)OC)C(C)C)[nH]c65)cc3-4)[nH]2)N(C(=O)[C@H](NC(=O)OC)c2ccccc2)C1 [Compound I D-tartrate Form II, methyl {(2S)-1-[(2S,5S)-2-(9-{2-[(2S,4S)-1-{(2R)-2-[(methoxycarbonyl)amino]-2-phenylacetyl}-4-(methoxymethyl)pyrrolidin-2-yl]-1H-imidazol-5-yl}-1,11-dihydroisochromeno[4′,3′:6,7]naphtho[1,2-d]imidazol-2-yl)-5-methylpyrrolidin-1-yl]-3-methyl-1-oxobutan-2-yl}carbamate D-tartrate]
